Patent publication US20150307539A1, “USE OF SULPHATED G[…] PROMOTERS OF NEURITIC GROWTH, M[…] INHIBITING THE PROLIFERATION OF ASTROGLIA AND MICROGLIA” (CONSEJO SUPERIOR DE INVESTIGACIONES CIENTIFICAS (CSIC), priority 2012, published 2015)

How the values were obtained:
[1] = system: Astrocytes (primary astroblasts from cerebral cortices of postnatal rats); test: Inhibition of astroglial cell proliferation, primary astroblasts; type: cell-based, rat; conditions: for IC50: Astrocytes, astroglia, rat, IC50 ± SE
Source text: (§1) To study the microglial and astroglial cell proliferation two cell lines of murine microglia were used (BV-2, N13), as well as primary astroblasts isolated from cerebral cortices of postnatal rats on day zero (P0). The cells were kept in DMEM plus 10% SBF, grown and treated for testing the inhibition of cell proliferation, as published earlier by the applicants (I. Garcia-Alvarez et al., J Med Chem 50, 364 (Jan. 25, 2007)). […] It was concluded that the inhibitory activity of IG20-NBD is not affected by the presence of the fluorescent group, as its IC50 is very similar to that obtained for the uncombined glycoside IG-20, which was used as a control in these tests.

N13 microglia = test: Inhibition of microglial cell proliferation, N13; type: cell-based, mouse; conditions: for IC50: N13, microglia, mouse, IC50 ± SE
Source text: as §1

RhoGDIα protein [2] = target: T1, RhoGDIα protein (Rattus norvegicus, UniProt Q5XI73); test: Co-immunoprecipitation with anti-RhoGDIα antibody (Western blot and MS), primary astrocytes; type: binding; conditions: primary astrocytes treated with 30 μM, cytosol fraction
T1 construct: This was verified by RhoGDIα immunoprecipitation in the microglial cell line BV-2, and also in primary astrocyte cultures; endogenous in cells; host or cells: primary astrocyte cultures
T1 sequence (Q5XI73 1-204): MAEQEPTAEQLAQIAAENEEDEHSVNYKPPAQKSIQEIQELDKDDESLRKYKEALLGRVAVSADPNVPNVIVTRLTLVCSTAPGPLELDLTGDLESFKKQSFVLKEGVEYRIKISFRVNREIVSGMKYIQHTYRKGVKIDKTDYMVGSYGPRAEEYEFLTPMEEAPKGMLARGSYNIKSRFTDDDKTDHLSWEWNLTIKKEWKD
Experimental: (§2) Primary astrocyte and microglia cells (BV-2) were treated with the glycoside IG-20 at 30 μM, lysed and subjected to cell fractionation by differential centrifugation. The soluble fraction was collected and mixed with lysis buffer (1:1). Anti-RhoGDIα antibody (15 μg) was added and it was incubated with rotation at 4° C. overnight. It was immunoprecipitated with Protein A-Sepharose (20 μl) having been previously washed with PBS and centrifuged for 3 minutes at 1100 rpm. The previous mixture was added to the Protein A-Sepharose (1:1). This mixture was incubated with rotation at 4° C. for an hour and a half, and afterwards centrifuged for 5 minutes at 2500 rpm at 4° C. After discarding the supernatant, the precipitate was washed three times with lysis buffer. The immunocomplex of the Protein A-Sepharose was eluted with five volumes of the elution buffer (0.1 M glycine, pH=2.9) and a neutralising volume of 1M tris-HCl, pH=9. The mixture was centrifuged for five minutes at 2500 rpm at 4° C. and the supernatant was collected. […]
(§3) This was verified by RhoGDIα immunoprecipitation in the microglial cell line BV-2, and also in primary astrocyte cultures. […] This was detected by MS as a peak in the mass to charge ratio of 550 (FIG. 4c, 4d), which corresponds to the synthetic glycoside. […]

[3] = system: neurons of spinal ganglia (SG) of rat embryos (E15); test: Neuritic outgrowth of spinal ganglia neurons co-cultured on aldynoglia; type: cell-based
Experimental: Spinal ganglia (SG) of rat embryos (E15) were dissected and incubated for 12 hours on axon growth-promoting cells (aldynoglia) to allow cellular adhesion of the neurons contained in the SG to the aldynoglia substrate. Next, different concentrations of IG-20, compound 3 produced as described in the synthesis examples, were added. […] The presence of total cells is shown by the fluorescent signal of the Hoechst-marked nuclei (FIG. 1a, 1b, 1c). The nuclei remote from the central body are aldynoglia cells or those that migrate from the SG. The neurofilament images were extracted (FIG. 1g, 1h, 1i) and measured, and the neuritic growth area was compared to the controls (FIG. 1j, 1k). […] A net increase in the neuritic growth area of 1250 μm^2 more than the control with aldynoglia cells (FIG. 1k) was produced. The average speed of neuritic outgrowth in the presence of aldynoglia, 625 μm/72 h corresponding to […], was duplicated in the presence of IG-20 (5 μM) up to 1250 μm/72 h, which corresponds to 17.36 μm/h. Calibration bars at 500 μm; (*) correspond to P<0.05 (P=0.019).

RhoGDIα protein [4] = target: T2, RhoGDIα protein (Mus musculus, UniProt Q99PT1); test: Co-immunoprecipitation with anti-RhoGDIα antibody (Western blot and MS), BV-2 microglia; type: binding; conditions: BV-2 microglia treated with 30 μM, cytosol fraction
T2 construct: This was verified by RhoGDIα immunoprecipitation in the microglial cell line BV-2; endogenous in cells; host or cells: BV-2 microglial cell line
T2 sequence (Q99PT1 1-204): T1 sequence (Q5XI73 1-204)
Experimental: as §2, §3

BV-2 microglia = test: Inhibition of microglial cell proliferation, BV-2; type: cell-based; conditions: mouse, IC50 ± SE
Source text: as §1

[5] = system: oligodendrocytes and astroglia from cerebral cortices of postnatal rats P0-P1; test: Oligodendrocyte growth, myelin (MBP) expression and astroglia (GFAP) inhibition in cortical glial culture; type: cell-based, rat; conditions: 30 μM, two weeks culture
Experimental: To study how the compound having formula I affects the growth of oligodendrocytes, the expression of myelin and the inhibition of astroglia, cerebral cortices of postnatal rats P0-P1 were dissected and enzymatically dissociated for cell culture. After two weeks incubation the culture flasks were stirred for 12 hours. The cells in suspension were harvested, the microglia were removed, and then cultured in DMEM plus SBF 10%. It was incubated for 6 hours to facilitate cell adhesion and the IG-20 (30 μM) was added to the treated group. The cells were cultured for two weeks and the medium was replaced every three days.
In both cases the differences were very significant. It was notable that the astroglial cells were large compared with the oligodendrocytes, which could scarcely be detected in the untreated controls (arrow in 2a, b). […] GFAP, glial fibrillary acidic protein; MBP, myelin basic protein; calibration bars at 75 μm (a, c) and 25 μm (b), as shown; (***) corresponds to P<0.001.

Structure (SMILES)	activity in astrocytes compared with IG-20 ([1]; 30 μM compared with 9.3 μM)	IC50 [1] [µM]	IC50 (N13 microglia) [µM]	microglial inhibition compared with IG-20 (N13 microglia; microglia)	IC50 ([1]; Astrocyte) [µM]	interaction with RhoGDIα (co-immunoprecipitation) (RhoGDIα protein [2])	net increase in the neuritic growth area more than the control with aldynoglia cells ([3]; 5 μM, 3 days incubation) [μm^2]	neuritic outgrowth compared with control aldynoglia ([3]; 5 μM, 3 days incubation, SG/aldynoglia co-culture)	average speed of neuritic outgrowth ([3]; 5 μM, control aldynoglia 8.3 μm/h) [μm/h]	average speed of neuritic outgrowth ([3]; 5 μM, control aldynoglia 625 μm/72 h) [μm/72 h]	neuritic outgrowth at five-fold increased concentration ([3]; five-fold increase of 5 μM, 3 days incubation)	interaction with RhoGDIα (co-immunoprecipitation) (RhoGDIα protein [4])	IC50 (BV-2 microglia) [µM]	GFAP marking compared with untreated control [5]	MBP signal compared with untreated control [5]	increase of mature oligodendroglia, MBP+ [5] [%]	oligodendrocyte size relative to controls [5]	reduction of the proportion of GFAP+ cells (astroglia) [5] [%]
CCCCCCCC/C=C\CCCCCCCCO[C@H]1O[C@H](COS(=O)(=O)[O-])[C@@H](O)[C@H](OS(=O)(=O)[O-])[C@H]1NC(=O)C(F)(F)F.[K+].[K+] [Disulphated IG-20, potash from oleyl N-trifluoroacetyl-3,6-O-di-(oxo-sulphonyl)-α-D-glucosaminide]	reduced its activity by three	30	3 ± 0.8	microglial inhibition was not affected	–	–	–	–	–	–	–	–	–	–	–	–	–	–
CCCCCCCC/C=C\CCCCCCCCO[C@H]1O[C@H](COS(=O)(=O)O)[C@@H](O)[C@H](O)[C@H]1NC(=O)CCCCCNc1ccc([N+](=O)[O-])c2nonc12 [IG20-NBD, potash from oleyl 2-[6-(7-nitrobenzofurazan)-aminohexanamide]-6-O-(oxo-sulphonyl)-α-D-glucosaminide]	–	–	7.8	–	11.4	–	–	–	–	–	–	–	–	–	–	–	–	–
CCCCCCCC/C=C\CCCCCCCCO[C@H]1O[C@H](COS(=O)(=O)[O-])[C@@H](O)[C@H](O)C1NC(C)=O.[K+] (stereo partly drawn) [IG-20, potash from oleyl N-acetyl-6-O-(oxo-sulphonyl)-α-D-glucosaminide]	–	–	3.4	–	9.3	interacts directly with the RhoGDIα protein	1250	profuse and significant increase in neuritic outgrowth	17.36	1250	reduced this neuritic outgrowth	interacts directly with the RhoGDIα protein	21	dramatic reduction in GFAP marking	increase in the MBP signal	10	3-4 times larger than the controls	20
